{
  "source": "patent US20130295115A1",
  "about": "“COMPOSITIONS AND METHODS FOR TREATING […]” (priority 2010, published 2013)",
  "key": {"Sindbis virus [1]": {"system": "Sindbis virus", "format": "cell-based"}, "[2]": {"system": "Vesicular Stomatitis Virus", "format": "cell-based"}, "West Nile virus": {"system": "West Nile virus", "format": "cell-based"}, "Sindbis virus [3]": {"system": "Sindbis virus", "format": "cell-based", "remark": "listed apart in the source"}, "hNRAMP2": {"system": "hNRAMP2", "experiment": "NRAMP2 expression (RT-PCR) in U2OS cells with iron", "format": "cell-based, human", "method": "Cells were treated with 160 μM Ammonium Iron(III) Citrate for three days prior to and throughout the infection.\nTotal RNA was purified using Trizol and used for reverse transcription with random priming and MLV-RT (Invitrogen) followed by PCR using the indicated primers."}, "Ross River virus": {"system": "Ross River virus", "format": "cell-based", "conditions": "iron treatment (not shown)"}, "[4]": {"system": "Venezuelan Equine Encephalitis virus (VEE)", "format": "cell-based"}, "Sindbis virus / NRAMP2": {"biological_target": "Sindbis virus / NRAMP2 (Homo sapiens, UniProt P49281)", "sequence (P49281 whole entry, looked up)": "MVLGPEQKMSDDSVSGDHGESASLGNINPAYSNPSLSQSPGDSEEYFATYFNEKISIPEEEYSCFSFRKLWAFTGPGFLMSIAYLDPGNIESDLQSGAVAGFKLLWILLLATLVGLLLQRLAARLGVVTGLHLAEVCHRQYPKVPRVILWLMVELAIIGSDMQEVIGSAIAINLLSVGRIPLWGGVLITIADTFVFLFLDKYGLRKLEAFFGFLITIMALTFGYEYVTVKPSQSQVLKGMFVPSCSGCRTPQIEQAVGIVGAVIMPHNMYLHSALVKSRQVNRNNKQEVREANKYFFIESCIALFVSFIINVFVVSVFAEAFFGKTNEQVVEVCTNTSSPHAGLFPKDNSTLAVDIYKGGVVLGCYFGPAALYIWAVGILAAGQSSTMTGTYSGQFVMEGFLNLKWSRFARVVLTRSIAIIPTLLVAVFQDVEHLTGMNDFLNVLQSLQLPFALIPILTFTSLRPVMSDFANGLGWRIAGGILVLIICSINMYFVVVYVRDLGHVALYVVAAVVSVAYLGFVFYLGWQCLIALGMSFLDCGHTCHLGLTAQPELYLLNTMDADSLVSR", "format": "cell-based"}, "[5]": {"biological_target": "human Natural Resistance-Associated Macrophage Protein 2 (hNRAMP2) (human) (UniProt P49281)", "sequence (P49281 whole entry)": "as the sequence (P49281 whole entry, looked up) above", "experiment": "cell-based or functional assay"}},
  "data": [
    {"compound": "Cl.N", "note": "[ammonium chloride]", "values": [
      {"measurement": "Sindbis infection", "setting": "Sindbis virus [1]", "result": "inhibited infection"}
    ]},
    {"compound": "Ammonium Iron(III) Citrate", "values": [
      {"measurement": "VSV infection", "setting": "[2]", "result": "no effect"},
      {"measurement": "West Nile virus infection", "setting": "West Nile virus", "result": "no effect"},
      {"measurement": "reduction in virus binding to iron-treated cells compared to controls", "setting": "Sindbis virus [3]", "result": "~17", "unit": "fold"},
      {"measurement": "NRAMP2 expression", "setting": "hNRAMP2; NRAMP2 over-expressing cells treated with iron (FIG. 7A)", "result": "decrease"},
      {"measurement": "NRAMP2 expression", "setting": "hNRAMP2; U2OS cells, high iron (FIG. 7A)", "result": "decreased"},
      {"measurement": "Ross River virus infection", "setting": "Ross River virus", "result": "insensitive"},
      {"measurement": "VEE infection", "setting": "[4]", "result": "sensitive"},
      {"measurement": "NRAMP2 co-precipitation with Sindbis virus", "setting": "Sindbis virus / NRAMP2", "result": "lost"},
      {"measurement": "Sindbis virus binding (streptavidin precipitation, immunoblot)", "setting": "Sindbis virus / NRAMP2", "result": "attenuated"}
    ]},
    {"compound": "Sindbis virus (biotinylated infectious virus particles)", "values": [
      {"measurement": "percentage of infected cells on NRAMP2 over-expression", "setting": "[5]", "result": 2, "unit": "fold"}
    ]}
  ]
}
